Consider 2 compounds from US20250114371A1, “BIOMARKER AND PATIENT SELECTION IN TREATMENT FOR MYELOFIBROSIS” (GlaxoSmithKline LLC, priority 2021, published 2025).

In data set [1] the test system is anemic or thrombocytopenic subjects with myelofibrosis previously treated with ruxolitinib. Kind of data set: SIMPLIFY-2 Phase 3 trial, MMB versus best available therapy (BAT). Type of data set: in vivo, human. As to conditions: for Response Ratio (MMB/Control): TI response at week 24, MMB/BAT. An excerpt: In the SIMPLIFY-2 trial (NCT02101268; GS-US-352-1214), the efficacy and safety of MMB versus best available treatment (BAT) was studied in anemic or thrombocytopenic subjects with myelofibrosis who were previously treated with ruxolitinib (RUX). There was no lower limit for the required baseline platelet count. […] The primary endpoint was a reduction by at least 35% in the spleen volume at 24 weeks compared with baseline.
(§1) The relationship between W24 response and overall survival (OS) was explored in patients randomized to MMB in the SIMPLFY-1 (S1) and SIMPLIFY-2 (S2) trials.
(§2) Responders were defined as follows: • W24 TI response (TI-R): no RBC transfusion within ?12 weeks immediately prior to W24, with Hgb≥8 g/dL • W24 spleen response: ≥35% spleen volume reduction vs baseline (BL) • W24 symptom response: ≥50% reduction in MFSAF total symptom score vs BL
(§3) Survival from baseline was estimated using K-M analysis with descriptive log-rank tests for comparison applied (all p values are descriptive). Hazard ratios were computed using proportional hazard regression. To adjust for the time to response bias, overall survival from W24 was also compared. As patients randomized to the control arm in both studies and crossed over to open label MMB after 24 weeks of randomized treatment, a valid comparison of overall survival with patients randomized to RUX or BAT/RUX vs MMB was not possible, therefore, only the MMB arm was analyzed.
(§4) Based on the findings from the Phase 2 translational biology study we retrospectively analyzed the relationship between serum ferritin, hepcidin and C-reactive protein (CRP) and the W24 TI response rates for patients randomized to MMB and RUX in the S1 study using univariate analyses and multiple logistic regression models. These findings were then independently confirmed in the previously RUX treated patients in S2.

The test system of data set [2] is transfusion-dependent myelofibrosis patients. Particulars: Oh et al. 2020, cited from earlier work.
Data set [3] has as its system patients with myelofibrosis naïve to treatment with a JAK inhibitor. As to conditions: Mesa et al., cited from earlier work.
For data set [4] the test system is unchanged. Description: SIMPLIFY-1 Phase 3 trial, MMB versus RUX, 24 weeks randomized treatment. Type of data set: in vivo, human. As to conditions: for Response Ratio (MMB/Control): TI response at week 24, MMB/RUX; for 3-year survival: patients randomized to MMB; for Week 24 TI response rate: patients with baseline anemia; for mean ferritin change at W24 from baseline: serum ferritin, irrespective of baseline ferritin. The method, then: In the SIMPLIFY-1 trial (NCT01969838; GS-US-352-0101), the efficacy and safety of MMB versus ruxolitinib (RUX) was studied in patients with myelofibrosis who were naïve to treatment with a JAK inhibitor. Patients (N=432) with high risk or intermediate-2 risk or symptomatic intermediate-1 risk myelofibrosis received 24 weeks of treatment with 200 mg MMB once daily or 20 mg RUX twice a day (or per label), after which all patients could receive open-label momelotinib. […] The primary endpoint was a reduction by at least 35% in the spleen volume at 24 weeks compared with baseline.
as §1, §2, §3, §4

Data set [5] has as its system myelofibrosis patients with low platelet counts. Kind of data set: Re-analysis of the data from the SIMPLIFY-1 and SIMPLIFY-2 trials by platelet count. Type of data set: in vivo, human. As to conditions: patients whose platelet counts are 150×109 per liter or below.
The test system of data set [6] is anemic or thrombocytopenic subjects with myelofibrosis previously treated with ruxolitinib. Particulars: Harrison et al., cited from earlier work.

Like-named read-outs stand apart in the source and are kept apart here.

As for `Cl.N#CCNC(=O)c1ccc(-c2ccnc(Nc3ccc(N4CCOCC4)cc3)n2)cc1` [MMB, N-(cyanomethyl)-4-(2-(4-morpholinophenylamino)pyrimidin-4-yl)benzamide], the “overall survival hazard ratio (HR)” value in data set [1] (MMB symptom (TSS) responders vs TSS nonresponders) worked out at 0.67; in data set [1] (all patients randomized to MMB, W24 TI responders vs TI non-responders), 0.57; in data set [4] (MMB W24 spleen responders vs nonresponders), 0.59; in data set [4] (MMB W24 symptom (TSS) responders vs nonresponders), 0.66; in data set [4] (MMB patients with anemia at baseline, W24 TI-R vs nonresponders) it was 0.32; in data set [4] (all patients randomized to MMB, W24 TI responders vs TI nonresponders), 0.30. Further, the “Response Ratio (MMB/Control)” value in data set [1] (baseline ferritin <90 ng/mL) is reported as 1.1429; in data set [1] (baseline ferritin ≥90 ng/mL), 3.7949; in data set [4] (baseline ferritin <90 ng/mL), 1.0843; in data set [4] (baseline ferritin ≥90 ng/mL) it was 1.7538. The hepcidin entry in data set [2] was “acutely and chronically suppresses elevated levels of hepcidin”; in data set [2] (listed as momelotinib), “inhibited”. In addition, the transfusion dependency result in data set [2] (transfusion-dependent myelofibrosis patients) is “reversed or reduced”. Also, the transfusion dependence rate entry in data set [3] (compared to RUX) is “decreased”. Besides, in data set [3] (compared to RUX), the transfusion independence rate entry is recorded as “increased”. The transfusion rate entry in data set [3] (compared to RUX) is “reduced”. Further, the “reduction of spleen size (primary endpoint)” value in data set [3] (vs RUX, JAKi-naïve patients, 24 weeks) is listed as “noninferior to RUX”; in data set [6] (vs BAT) it was “not superior to BAT”. In data set [3] (vs RUX), the “total symptom score (TSS) response (secondary endpoint)” value was “non-inferiority was not demonstrated”. For the same compound, in data set [4] (MMB vs RUX, irrespective of baseline anemia, platelet count or transfusion status (FIGS. 1-3)), the “W24 TI-R rate” value is reported as “higher in patients randomized to MMB vs RUX”. For the same compound, the “stabilizing ferritin over time” value in data set [4] (compared to RUX (FIGS. 12 and 13)) was “more effective at stabilizing ferritin over time when compared to RUX”. The “W24 TI-R by baseline ferritin cohort” value is “superior to RUX for each ferritin cohort” in data set [4] (each ferritin cohort (FIG. 14)) and “nominally better than RUX” in data set [4] (ferritin levels exceed 650 ng/mL (FIG. 14)). For the same compound, the 3-year survival in data set [4] (TI nonresponders at W24) is 50%; in data set [4] (TI responders at W24) it was 80%. Further, the “Week 24 TI response rate” value in data set [4] came to 45%. Further, the “mean ferritin change at W24 from baseline” value in data set [4] was “+13.8 ng/mL”. For the same compound, in data set [5], the “reducing spleen size (SSR), improving total symptom scores (TSS), improving transfusion independence rates” value is “effective”. In addition, in data set [5], the thrombocytopenia entry was “without momelotinib administration causing thrombocytopenia”. Moreover, the “total symptom score (TSS) response” value in data set [6] (compared to BAT group) is reported as “greater”. Further, in data set [6] (compared to BAT group), the transfusion dependence result is listed as “lower”. Besides, in data set [6] (compared to BAT group), the transfusion independence entry is recorded as “higher”. Moreover, the transfusions entry in data set [6] (compared to BAT group) was “fewer”.

For `N#CC[C@H](C1CCCC1)n1cc(-c2ncnc3[nH]ccc23)cn1` [RUX, Ruxolitinib, reference compound], in data set [4], the “Week 24 TI response rate” value is 26% and the “mean ferritin change at W24 from baseline” value is “+226.1 ng/mL”.
